Solid-liquid equilibrium temperature data for 3 molecules are collected here from the NIST ThermoML archive (doi:10.1016/j.fluid.2005.06.028).

The structures appear in SMILES notation. ± gives the expanded uncertainty stated by the source.

The series in a line: Solid-liquid equilibrium temperature.

`CCCCCCCCCCCCCC` [tetradecane]: the Solid-liquid equilibrium temperature was determined as 279.2 ± 0.9 K (100 kPa, Crystal); 284.2 ± 0.9 K (20000 kPa, Crystal); 289.1 ± 0.9 K (40000 kPa, Crystal); 293.8 ± 0.9 K (60000 kPa, Crystal); 297.9 ± 0.9 K (80000 kPa, Crystal); 301.7 ± 0.9 K (100000 kPa, Crystal).
`CCCCCCCCCCCCCCCC` [hexadecane]: the Solid-liquid equilibrium temperature runs as follows: (100 kPa, Crystal 1) 291.5 ± 0.9 K; (20000 kPa, Crystal 1) 296 ± 0.9 K; (40000 kPa, Crystal 1) 300.4 ± 0.9 K; (60000 kPa, Crystal 1) 304.8 ± 0.9 K; (80000 kPa, Crystal 1) 309.7 ± 0.9 K; (100000 kPa, Crystal 1) 313.5 ± 0.9 K.
Regarding `CCCCCCCCCCCCCCC` [pentadecane], the Solid-liquid equilibrium temperature (100 kPa, Crystal) is on record as 283.2 ± 0.9 K; the Solid-liquid equilibrium temperature (20000 kPa, Crystal) was 287.8 ± 0.9 K; the Solid-liquid equilibrium temperature (40000 kPa, Crystal) amounted to 291.9 ± 0.9 K; the Solid-liquid equilibrium temperature (60000 kPa, Crystal) came to 296.2 ± 0.9 K; the Solid-liquid equilibrium temperature (80000 kPa, Crystal) was found to be 300.1 ± 0.9 K; the Solid-liquid equilibrium temperature (100000 kPa, Crystal) was 303.9 ± 0.9 K.
